Reference: publication PMC11573584, “Thanatin and vinyl sulfide analogues as narrow spectrum antimicrobial peptides that synergise with polymyxin B” (Frontiers in Pharmacology, 2024)
Values after ≈ are worked out from the molar mass of the structure shown. Like-named read-outs stand apart in the source and are kept apart here. Numbered stars: 1 amine (or outer) side, 2 acyl side, 3 side chain; on linkers, the order of the positions; unused ones are H or OH. Bridge positions count the residues as written; N and C are the ends. Square brackets hold non-standard residues; d marks the D form. Peptide text beside a SMILES is read from it. X1 = C=C(CC(=O)[*:1])[*:2]; X2 = C=C(CC(=O)[*:2])[*:1]; Dap = NC[C@H](N)C(=O)O

Assays:
[1] = system: Candida albicans SC5314 (type strain); assay: microbe, parasite or virus in culture; assay type: cell-based; details: read-out: Minimum inhibitory concentration (MIC)
Description: Candida albicans SC5314 (type strain) was grown using RPMI 1640 media (with glutamine and phenol red, without bicarbonate). MIC assays were performed in accordance with the CLSI recommended protocol ([Clinical and Laboratory Standards Institute, 2006], Performance standards for antimicrobial susceptibility testing; sixteenth informational supplement. CLSI document M100-S16, Wayne, PA., 2006). See SI for further details. […]
Antimicrobial susceptibility of Candida albicans SC5314 (type strain) was assessed by broth
microdilution in accordance with the CLSI recommended protocols (Clinical and Laboratory Standards
Institute, 2006, Performance standards for antimicrobial susceptibility testing; sixteenth informational
supplement. CLSI document M100-S16, Wayne, PA., 2006). Briefly, a two-fold dilution series of the
test compounds (from 64 μM to 0.25 μM, final) was prepared in triplicate in polypropylene 96-well
plates, using RPMI 1640 media (with glutamine and phenol red, without bicarbonate). Inoculum was
prepared from a 24 h old culture by picking 5 colonies (~1 mm in diameter) and resuspending these in
0.85% saline. Upon vortex mixing, the resulting suspension was diluted to provide a solution with
absorbance equivalent to that of a 0.5 McFarland standard, approx. 0.1 OD at 530 nm (using 1 cm path
length cuvette). This suspension was then diluted 1:50 and a further 1:20 with RPMI 1640 media to as
to achieve a final inoculum of […] to 2.5 x 10^3 CFU/mL upon addition to the plate. The plates
were incubated at 35 °C for 48 h, at which time the MIC was determined as the lowest test concentration
at which no turbidity was observed across all three replicates. The assay was performed independently
on three occasions and the reported MIC defined as the lowest concentration in which agreement was
observed for all three biological replicates.

S. aureus ATCC 25923 = details: non-cation adjusted media, ref Sinha et al. (2022); cited from earlier work
Excerpt: (§1) TABLE 1 Minimum Inhibitory Concentrations (MICs) of thanatin* (5) and similar analogues against a variety of pathogens. | column: Minimum inhibitory concentration (µM) / Thanatin ^a ^, ^b (1); Minimum inhibitory concentration (µM) / Thanatin M21F ^b (4) || TABLE 2 Minimum Inhibitory Concentrations (MICs) of thanatin* (5) and analogues (8–11) towards a variety of pathogens. | column: Minimum inhibitory concentration (µM) / 1 (Thanatin) ^a

P. aeruginosa ATCC 27853 = details: non-cation adjusted media, ref Sinha et al. (2022); cited from earlier work
Excerpt: (§2) TABLE 1 Minimum Inhibitory Concentrations (MICs) of thanatin* (5) and similar analogues against a variety of pathogens. | column: Minimum inhibitory concentration (µM) / Thanatin ^a ^, ^b (1); Minimum inhibitory concentration (µM) / Thanatin M21F ^b (4)

E. coli BL21 = details: non-cation adjusted media, ref Sinha et al. (2022); cited from earlier work
Excerpt: as §2

E. coli ATCC 25922 = details: non-cation adjusted media, ref Wu et al. (2013); cited from earlier work
Excerpt: as §1, with “S-Thanatin ^a (3)” for “Thanatin M21F ^b (4)”

P. aeruginosa = details: ref Cirioni et al., 2011, cited from earlier work
[2] = system: Staphylococcus aureus ATCC 29213; assay: microbe, parasite or virus in culture; assay type: cell-based; details: for MIC: read-out: Minimum inhibitory concentration (MIC)
Description: (§3) Staphylococcus aureus ATCC 29213, Pseudomonas aeruginosa (SVB-B9) (type strain) and Escherichia coli ATCC 25922 were grown in cation adjusted Mueller Hinton (MH) broth at 37°C with shaking (200 rpm). MIC assays were performed in accordance with the CLSI recommended protocols ([Clinical and Laboratory Standards Institute, 2006], Performance standards for antimicrobial susceptibility testing; sixteenth informational supplement. CLSI document M100-S16, Wayne, PA., 2006). See SI for further details.
(§4) 4 Antimicrobial Testing of Thanatin* (5) and Analogues 8 – 11
(§5) 4.1 Antibacterial Testing
(§6) Staphylococcus aureus ATCC 29213, Pseudomonas aeruginosa (SVB-B9) (type strain) and
(§7) Escherichia coli ATCC 25922 were grown in cation adjusted Mueller Hinton (CAMHB) broth at 37
(§8) °C with shaking (200 rpm). MIC assays were performed in accordance with the CLSI recommended
(§9) protocol (Clinical and Laboratory Standards Institute, 2006, Performance standards for antimicrobial
(§10) susceptibility testing; sixteenth informational supplement. CLSI document M100-S16, Wayne, PA.,
(§11) 2006). Briefly, a two-fold dilution series of the test compounds (from […], final) was
(§12) prepared in triplicate in polypropylene 96-well plates in CAMHB. Fresh cultures of bacteria grown for
(§13) ca. 6 h were diluted accordingly in fresh media before adding 50 µL of inoculum to each well of the
(§14) MIC plate, to achieve a final volume of 100 µL with a uniform CFU/ml of ~5 x105 in each well. A
(§15) growth control (untreated) and sterility control (non-inoculated) well was included for each test
(§16) compound replicate. Plates were incubated at 37 °C with shaking for 18 h before determining the MIC.
(§17) MIC values were determined as the lowest concentration at which no growth was observed consistently
(§18) across all three biological replicates of the assay and within triplicates of each test compound. […]

[3] = system: Escherichia coli ATCC 25922; assay type: cell-based
Description: as §3, §4, §5, §6, §7, §8, §9, §10, §11, §12, §13, §14, §15, §16, §17, §18

[4] = system: Pseudomonas aeruginosa (SVB-B9) (type strain); assay type: cell-based; details: 18 h
Description: as §3, §4, §5, §6, §7, §8, §9, §10, §11, §12, §13, §14, §15, §16, §17, §18

| Molecule | MIC ([2]; ATCC 29213, 18 h) [µM] | Minimum inhibitory concentration (MIC) ([3]; ATCC 25922, 18 h) [µM] | Minimum inhibitory concentration (MIC) ([4]; SVB-B9) (type strain) [µM] | MIC ([1]; SC5314, 48 h) [µM] | further results |
| --- | --- | --- | --- | --- | --- |
| C[C@@H]1[C@H](O)[C@@H](C)/C=C/C=C/C=C/C=C/C=C/C=C/C=C/[C@H](O[C@@H]2O[C@H](C)[C@@H](O)[C@H](N)[C@@H]2O)C[C@@H]2O[C@](O)(C[C@@H](O)C[C@@H](O)[C@H](O)CC[C@@H](O)C[C@@H](O)CC(=O)O[C@H]1C)C[C@H](O)[C@H]2C(=O)O [AMB, amphotericin B, reference compound] | – | – | – | – | MIC ([1]; Candida albicans, C. albicans SC5314, RPMI 1640 media, 35 °C, 48 h, triplicate, three independent assays): 1 µM (≈ 0.924 µg/mL) |
| thanatin M21F [Thanatin M21F (4)] | – | – | – | – | Minimum inhibitory concentration (MIC) (S. aureus ATCC 25923): 0.5 µM; Minimum inhibitory concentration (MIC) (P. aeruginosa ATCC 27853): 0.5 µM; Minimum inhibitory concentration (MIC) (E. coli BL21): 0.5 µM |
| S-thanatin [S-Thanatin (3)] | – | – | – | – | Minimum inhibitory concentration (MIC) (E. coli ATCC 25922): 1.6 µM; FICI (P. aeruginosa; S-thanatin with colistin (polymyxin E)): 0.46; MIC (P. aeruginosa): 16 µg/mL |
| C=C1CC(=O)NC[C@@H](C(=O)N[C@@H](CCC(N)=O)C(=O)N[C@@H](CCCNC(=N)N)C(=O)N[C@@H](Cc2ccccc2)C(N)=O)NC(=O)[C@H](CCCCN)NC(=O)CNC(=O)[C@H](CO)NC(=O)[C@H](CCCNC(=N)N)NC(=O)[C@H](CCCNC(=N)N)NC(=O)[C@H](CC(N)=O)NC(=O)[C@@H](NC(=O)[C@H](Cc2ccc(O)cc2)NC(=O)[C@@H](NC(=O)[C@@H](NC(=O)[C@@H]2CCCN2C(=O)[C@@H](NC(=O)[C@@H]2CCCN2C(=O)[C@H](CCCCN)NC(=O)[C@H](CCCCN)NC(=O)[C@H](CO)NC(=O)CN)C(C)C)[C@@H](C)CC)[C@@H](C)CC)CS1 [compound 11] (H-GSKKPVPIIYCNRRSGK[Dap]QRF-NH2; linker 11-18 via X2) | >64 | 8 (≈ 19.9 µg/mL) | >64 | >64 | – |
| C=C1CC(=O)NC[C@H](NC(=O)[C@H](Cc2ccc(O)cc2)NC(=O)[C@@H](NC(=O)[C@@H](NC(=O)[C@@H]2CCCN2C(=O)[C@@H](NC(=O)[C@@H]2CCCN2C(=O)[C@H](CCCCN)NC(=O)[C@H](CCCCN)NC(=O)[C@H](CO)NC(=O)CN)C(C)C)[C@@H](C)CC)[C@@H](C)CC)C(=O)N[C@@H](CC(N)=O)C(=O)N[C@@H](CCCNC(=N)N)C(=O)N[C@@H](CCCNC(=N)N)C(=O)N[C@@H](CO)C(=O)NCC(=O)N[C@@H](CCCCN)C(=O)N[C@H](C(=O)N[C@@H](CCC(N)=O)C(=O)N[C@@H](CCCNC(=N)N)C(=O)N[C@@H](Cc2ccccc2)C(N)=O)CS1 [compound 9] (H-GSKKPVPIIY[Dap]NRRSGKCQRF-NH2; linker 11-18 via X1) | >64 | 16 (≈ 39.8 µg/mL) | >64 | >64 | reduction in potency compared to thanatin* (5) ([3]; E. coli ATCC 25922 MIC): 16 fold |
| CC[C@H](C)[C@H](NC(=O)[C@@H](NC(=O)[C@@H]1CCCN1C(=O)[C@@H](NC(=O)[C@@H]1CCCN1C(=O)[C@H](CCCCN)NC(=O)[C@H](CCCCN)NC(=O)[C@H](CO)NC(=O)CN)C(C)C)[C@@H](C)CC)C(=O)N[C@@H](Cc1ccc(O)cc1)C(=O)N[C@H]1CSSC[C@@H](C(=O)N[C@@H](CCC(N)=O)C(=O)N[C@@H](CCCNC(=N)N)C(=O)N[C@@H](Cc2ccccc2)C(N)=O)NC(=O)[C@H](CCCCN)NC(=O)CNC(=O)[C@H](CO)NC(=O)[C@H](CCCNC(=N)N)NC(=O)[C@H](CCCNC(=N)N)NC(=O)[C@H](CC(N)=O)NC1=O [Thanatin* (5), thanatin*] (H-GSKKPVPIIYCNRRSGKCQRF-NH2; disulfide 11-18) | >64 | 1 (≈ 2.43 µg/mL) | >64 | >64 | Minimum inhibitory concentration (MIC) ([2]; S. aureus ATCC 29213, cation adjusted Mueller Hinton broth, 37 °C, 18 h, ~5 x10^5 CFU/mL, triplicate, three biological replicates): no activity; selectivity towards E. coli over P. aeruginosa ([3]; ratio of MICs, P. aeruginosa (SVB-B9) vs E. coli ATCC 25922, cation adjusted media): > 64 fold |
| polymyxin B [PMB, reference compound] | – | – | – | – | Minimum inhibitory concentration (MIC) ([3]; E. coli ATCC 25922, cation adjusted Mueller Hinton broth, 37 °C, 18 h, ~5 x10^5 CFU/mL, triplicate, three biological replicates): 0.125 µM; Minimum inhibitory concentration (MIC) ([4]; P. aeruginosa (SVB-B9) type strain, cation adjusted Mueller Hinton broth, 37 °C, ~5 x10^5 CFU/mL, triplicate, three biological replicates): 0.125 µM |
| C=C1CC(=O)NCCCC[C@@H](C(=O)N[C@@H](CCC(N)=O)C(=O)N[C@@H](CCCNC(=N)N)C(=O)N[C@@H](Cc2ccccc2)C(N)=O)NC(=O)[C@H](CCCCN)NC(=O)CNC(=O)[C@H](CO)NC(=O)[C@H](CCCNC(=N)N)NC(=O)[C@H](CCCNC(=N)N)NC(=O)[C@H](CC(N)=O)NC(=O)[C@@H](NC(=O)[C@H](Cc2ccc(O)cc2)NC(=O)[C@@H](NC(=O)[C@@H](NC(=O)[C@@H]2CCCN2C(=O)[C@@H](NC(=O)[C@@H]2CCCN2C(=O)[C@H](CCCCN)NC(=O)[C@H](CCCCN)NC(=O)[C@H](CO)NC(=O)CN)C(C)C)[C@@H](C)CC)[C@@H](C)CC)CS1 [compound 10] (H-GSKKPVPIIYCNRRSGKKQRF-NH2; linker 11-18 via X2) | >64 | 4 (≈ 10.1 µg/mL) | >64 | >64 | – |
| CC1(C)S[C@@H]2[C@H](NC(=O)[C@H](N)c3ccc(O)cc3)C(=O)N2[C@H]1C(=O)O [AMX, amoxicillin, reference compound] | – | – | – | – | MIC ([2]; Staphylococcus aureus, ATCC29213, S. aureus ATCC 29213, cation adjusted Mueller Hinton broth, 37 °C, 18 h, ~5 x10^5 CFU/mL, triplicate, three biological replicates): 2 µM (≈ 0.731 µg/mL) |
| C=C1CC(=O)NCCCC[C@H](NC(=O)[C@H](Cc2ccc(O)cc2)NC(=O)[C@@H](NC(=O)[C@@H](NC(=O)[C@@H]2CCCN2C(=O)[C@@H](NC(=O)[C@@H]2CCCN2C(=O)[C@H](CCCCN)NC(=O)[C@H](CCCCN)NC(=O)[C@H](CO)NC(=O)CN)C(C)C)[C@@H](C)CC)[C@@H](C)CC)C(=O)N[C@@H](CC(N)=O)C(=O)N[C@@H](CCCNC(=N)N)C(=O)N[C@@H](CCCNC(=N)N)C(=O)N[C@@H](CO)C(=O)NCC(=O)N[C@@H](CCCCN)C(=O)N[C@H](C(=O)N[C@@H](CCC(N)=O)C(=O)N[C@@H](CCCNC(=N)N)C(=O)N[C@@H](Cc2ccccc2)C(N)=O)CS1 [compound 8] (H-GSKKPVPIIYKNRRSGKCQRF-NH2; linker 11-18 via X1) | >64 | 4 (≈ 10.1 µg/mL) | >64 | >64 | – |
